Measured values reported in ChEMBL document CHEMBL5346892, “Design and synthesis of benzochromene derivatives as AcrB inhibitors for the reversal of bacterial multidrug resistance” (Eur J Med Chem, 2023).

Columns and labels:
Assay type in all cases: functional
[1] = test system: Escherichia coli; assay: Synergistic antibacterial activity against wild type Escherichia coli BW25113 assessed as erythromycin MIC at 2 microg/ml incubated for 18 hrs in presence of colistin by broth dilution assay; conditions: dose 2 µg/ml
[2] = test system: Escherichia coli; assay: Synergistic antibacterial activity against wild type Escherichia coli BW25113 assessed as minocycline MIC at 0.5 microg/ml incubated for 18 hrs in presence of colistin by broth dilution assay; conditions: dose 0.5 µg/ml
[3] = test system: Escherichia coli; assay: Synergistic antibacterial activity against wild type Escherichia coli BW25113 assessed as fold decrease in erythromycin MIC at 8 to 128 microg/ml incubated for 18 hrs by checkboard based microplate reader analysis; conditions: dose 8-128 µg/ml
[4] = test system: Escherichia coli; assay: Synergistic antibacterial activity against wild type Escherichia coli BW25113 assessed as erythromycin MIC at 4 microg/ml incubated for 18 hrs in presence of colistin by broth dilution assay; conditions: dose 4 µg/ml
[5] = test system: Escherichia coli; assay: Synergistic antibacterial activity against wild type Escherichia coli BW25113 assessed as fold decrease in minocycline MIC at 128 microg/ml incubated for 18 hrs by checkboard based microplate reader analysis; conditions: dose 128 µg/ml
[6] = test system: Escherichia coli; assay: Synergistic antibacterial activity against wild type Escherichia coli BW25113 assessed as fold decrease in levofloxacin MIC at 64 microg/ml incubated for 18 hrs by checkboard based microplate reader analysis; conditions: dose 64 µg/ml

Q: Which results are given for CC1(C)CCc2c(C(=O)N3CCOCC3)cc3c(OCCN4CCN(c5ccccc5)CC4)cccc3c2O1?
A: MIC [1]: 8 µg/mL; MIC [2]: 1 µg/mL; fold change (FC) [3]: 16

Q: With CC1(C)CCc2c(C(=O)N3CCOCC3)cc3c(OCCSc4ccc([N+](=O)[O-])cc4)cccc3c2O1 as the molecule, how does the MIC [4] read?
A: Its MIC is 8 µg/mL.

Q: Which “fold change (FC)” value [5] does the source give for CC1(C)CCc2c(C(=O)N3CCOCC3)cc3c(OCCCOc4cccc(C(=O)O)c4)cccc3c2O1 here?
A: The value was 4.

Q: What about the “fold change (FC)” value [6] of the same molecule?
A: The value was 4.
